# Laboratory results reported in patent US20250223559A1, “AXIOLOID: A STEM CELL-BASED MODEL OF HUMAN AXIAL DEVELOPMENT” (KYOTO UNIVERSITY, priority 2022, published 2025).
# “And” between values parts separate entries of the source, which are not always exact repeats. Identical values can stand only once. “Also recorded” adds a separate entry of the source.
# What was measured:
# [1] = system: axioloids from human iPS cells; assay: Axioloid induction and morphogenesis with alternative media, factor concentrations, ECM compounds and retinoid agonist; assay type: cell-based
# Experimental: Human iPS cell lines derived from healthy donors, e.g. 409B2 were used in this study. Human iPS cells were maintained in StemFit AK02N (Reprocell) medium supplemented with 50 U penicillin and […] streptomycin (Gibco) on iMatrix-511 silk-coated plates or dishes (Nippi). StemFit AK02N (Reprocell) medium contains three components, A, B and C, all three of which were mixed and used for standard maintenance culture of human iPS cells in humidified incubators at 37° C. and 5% CO2. Used iPS cells were regularly tested and reported negative for mycoplasma contamination.
# Based on the axioloid protocol it was explored if alternative compounds, molecules or inhibitors could be used and would support the generation of axioloids from PSCs. It was started by testing if NDiff227 (Takara, Cat: Y40002) medium or RPMI 1640 (Nacalai, Cat: 30264-85) supplemented with B27 either with (Gibco, Cat: 17504-044) or without (in house) retinol could be used as an alternative to AK02N-C induction media. The effects of different concentrations of bFGF (from 5 to 250 ng ml-1), or CHIR99021 (from 2.5 to 10 μM), or SB431542 (from 1.25 to 15 μM) were then tested on axioloid morphology. It was also tested if another member of the FGF superfamily: FGF8b (PeproTech, Cat: 100-25) (from 20 to 250 ng ml^−1) or another TGFβ inhibitor A83-01 (Selleck Chemicals, Cat: S7692) (from 1.25 to 15 μM) could have similar results as described for bFGF and SB431542. Finally, during the embedding phase it was tested if the alternative ECM containing compounds Geltrex (Gibco, Cat: A14132-0), Cultrex (R&D Systems, Cat: 3433-005-01), and ECMgel (Sigma-Aldrich, Cat: E6909) could be used instead of Matrigel and would support axioloid morphogenesis. It was also assessed whether a synthetic RA selective agonist, TTNPB (4-[(E)-2-(5,6,7,8-Tetrahydro-5,5,8,8-tetramethyl-2-naphthalenyl)-1-propenyl]benzoic acid) (Selleck Chemicals, Cat: S4627) could replace vitamin A derivatives such as retinol or retinal.
# The generation of a mesoderm-based human induced pluripotent stem cell (iPSC)-derived 3D model of human axial development was recently reported, which is termed ‘axioloids’. […] This was then followed by a 3D aggregation step in the presence of bFGF and CHIR (same concentrations as during 1st step) in addition to 10 μM of SB431542 (TGFβ inhibitor) and 10 μM of Y-27632 (ROCK inhibitor). This step aimed at promoting the commitment of the initial primitive streak cells to a presomitic or paraxial mesoderm (PSM) fate. Formed mesodermal aggregates spontaneously broke symmetry and started elongating and adopted an initial ‘bean-like’ morphology.
# human Axioloids = assay: Axioloid morphogenesis during Matrigel embedding phase (brightfield live imaging, length, segment and somite quantification); assay type: cell-based
# Experimental: Human iPS cells were seeded on iMatrix-511 silk (Nippi) coated dishes at a density of 1.3×10^4 cells/well into 6 well plates 5 days prior to Axioloid induction and used at 60% confluency. All subsequent induction steps were performed in AK02N (Reprocell) medium without component C (AK02N-C). Initially, hiPSCs were pulsed with a strong mesoderm and primitive streak fate inducing combination of bFGF (20 ng ml-1) and WNT agonist CHIR99021 (5 μM) for 24 h. CHIR99021 concentration may need to be adjusted depending on the used iPSC line, but remains usually in the range of 3-5 μM. 24 h after the initial pulse, cells were dissociated with Accutase (Thermo Fisher Scientific) and cultured for 24 h in 96-well U-bottom low attachment plates (Sumilon) at 500 cells/well in 50 μl of AK02N—C based aggregation medium supplemented with CHIR99021 (5 μM), basic FGF (20 ng ml^1), TGFβ inhibitor SB431542 (10 μM) and ROCK inhibitor Y27632 (10 μM). 24 h after aggregation, 150 μl of AK02N-C medium was added into each well and exchanged again after 24 h with 150 μl of fresh AK02N-C medium. 48 h after aggregation Axioloids were transferred one-by-one into BSA-treated 96-well flat-bottom low attachment plates (Watson) and embedded into 80 μl of AK02N-C medium containing 10% growth factor-reduced Matrigel (Corning) and cultured further at 37° C. and 5% CO2 for 24 to 48 h. Depending on the experimental setup Retinoic Acid signaling molecules, i.e. Retinoic Acid (RA) (100 nM), Retinol (ROL) (10 μM) or all trans-Retinal (RAL) (1 μM) were added to the MG containing medium throughout the embedding phase. Small molecule inhibitors of FGF (PD173074 (250 nM)), WNT (XAV939 (2 μM)), RA (BMS493 (2.5 μM)) and Notch (DAPT (25 μM)) signaling were also added during the embedding phase and their effects on Axioloids assessed accordingly. For details of the used recombinant human proteins, small molecule agonists and inhibitors, please see Supplementary Table 1. […]
# Periodicity of segmentation was quantified from brightfield live-cell imaging data obtained with an inverted Ti2 microscope system (Nikon) using PlanApo λ 10× objective. […]
# Quantification of length or intensity based on imaging data was performed using Fiji^57. Rostrocaudal length of formed segments was quantified from a center plane in z-stack images of Phalloidin-stained Axioloids. The longitudinal axes of Axioloids were measured on bright field images using Segmented Line tool. For quantifying fluorescent intensity of HCR or IHC staining, first, maximum intensity z projection images were created from multi-channel z-stack confocal images, then intensity of each channel was quantified along the longitudinal axis of Axioloids by Segmented Line tool, with a line width which corresponds to approximately 80% of the lateral length of Axioloids. […]
# [2] = system: segmentation clock gene HES7; assay: HES7:Luciferase reporter oscillation of the segmentation clock in Axioloids; assay type: cell-based, human; details: for oscillatory activity of the segmentation clock gene HES7: signaling inhibitor added to MG+RAL
# Experimental: Bioluminescence live-cell imaging of HES7-reporter (201B7Luc) iPSC-derived human Axioloids (201B7Luc) was performed and signal was quantified as previously described^55,56 Briefly, one day before imaging glass-bottom 96-well plates (Iwaki) were coated with 50 μl of 1.5% PVA (Nacalai), the PVA solution was hereby aspirated and the plates dried on top of a clean bench overnight at room temperature. Prior to imaging, Axioloids were set onto coated glass-bottom 96-well plates with 80 μl of AK02N-C medium containing […] D-Luciferin and 10% Matrigel. Small molecule agonists and antagonists of signaling pathways were added according to the experimental setup. Bioluminescence signals of Axioloids induced from the HES7-reporter cell line were recorded on IX83 (Olympus) equipped with iXon EMCCD camera (Andor) cultured in a stage top incubator (Tokai Hit). Signal was acquired with 2×2 binning and 1 min exposure. Cosmic rays were removed from the raw images by applying spike noise filter, then smoothed by median filter. Temporal fluctuation of signal baseline was corrected by background subtraction. Kymograph was generated by averaging luminescence intensity values along the lateral axis of Axioloids and resulted values were aligned in temporal order.
# Periodicity of HES7 oscillation was quantified from time-series luminescence intensity data obtained from either live imaging or Kronos HT (Atto) measurements using HES7 reporter-derived Axioloids. For Kronos HT based oscillation measurements, Axioloids were transferred at 72 h (48 h after aggregation) into 24-well film-bottom plates (Eppendorf) covered in 400 μl of embedding medium (+/−MG) supplemented with D-Luciferin (100 μM) (bioWORLD). Axioloid containing culture plates were cultured at 37° C. and 5% CO2. Oscillations were measured for 48 hours and each well was measured for 10 seconds with 8 min intervals. Intensity values were processed using Matlab. Temporal trend was obtained by subtracting moving average (window size of 10 h), and the detrended signal was smoothed by Savitzky-Golay filter (window size of 3 h). Instantaneous oscillation phase was calculated by applying Hilbert transform, then peak detection was performed on cosine values of instantaneous oscillation phase. Peak-to-peak period was then quantified on each n-th oscillation.
# [3] = system: axioloids from human iPS cells; details: Yamanaka, Hamidi et al., Nature 2023; cited from earlier work
compound,measurement,setting,value
Cc1cccc(-c2nn(C(=S)Nc3ccccc3)cc2-c2ccnc3ccccc23)n1 [A-83-01],concentration giving best results,[1],1.25 µM and 2.5 µM
same,substitution for the standard component (bFGF or SB431542),[1],can be used as an alternative to SB431542
same,axioloid morphogenesis,[1]; different concentrations (1.25 to 15 μM),recapitulate hallmarks of proper axioloids morphogenesis
CC1(C)CC=C(C#Cc2ccccc2)c2cc(/C=C/c3ccc(C(=O)O)cc3)ccc21 [BMS493],somite formation and epithelialization,human Axioloids; BMS493 (2.5 μM) added to MG+RAL,strongly inhibiting somite formation and epithelialization; also recorded: clear detrimental effect
same,overall length of Axioloids,human Axioloids; signaling inhibitor added to MG+RAL during embedding phase,remained stable
same,oscillatory activity of the segmentation clock gene HES7,[2],no effect
"Cc1c[nH]c(-c2cnc(NCCNc3ccc(C#N)cn3)nc2-c2ccc(Cl)cc2Cl)n1 [CHIR99421, 6-[2-[4-(2,4-Dichlorophenyl)-5-(4-methyl-1H-imidazol-2-yl)pyrimidin-2-ylamino]ethylamino]pyridine-3-carbonitrile]",concentration that might work for most PSC lines,[1],around 5 μM
same,influence of concentration on success of axioloid generation,[1],most critical factor determining the overall success rate of axioloid generation
same,axioloid induction and morphology,[1]; 2 μM or 2.5 μM,round cellular aggregates with no sign of symmetry breaking or elongation
same,axioloid induction and morphology,[1]; 3 μM,formation of elongated neural tube-like structures
same,overall axioloid length,[1]; 7.5 μM or 10 μM,some negative impact on overall axioloid length
same,overall axioloid morphology,[1]; 7.5 μM or 10 μM,no dramatic effect on overall axioloid morphology
same,dependence of outcome on cell line,[1]; CHIR concentrations during induction,variable outcomes depending on the utilized cell line
same,formation of primitive streak-like cells from human PSCs,[1]; initial 2D induction with both bFGF (20 ng/ml) and CHIR99421 (5 µM),efficiently and reproducibly promoted the formation of primitive streak-like cells
same,requirement for proper axioloid induction,[3],necessary and sufficient
C[C@H](NC(=O)Cc1cc(F)cc(F)c1)C(=O)N[C@H](C(=O)OC(C)(C)C)c1ccccc1 [DAPT],oscillatory activity of the segmentation clock gene HES7,[2],quick damping and loss of oscillatory activity
"CC1=C(/C=C/C(C)=C/C=C/C(C)=C/CO)C(C)(C)CCC1 [ROL, Retinol]",stability and epithelialization of forming segments,"human Axioloids; added during MG embedding phase 72 h-120 h (RA 100 nM, ROL 10 μM, RAL 1 μM), 96 h and 120 h",dramatic improvement of the stability and epithelialization of forming segments
same,oscillatory activity including periodicity of HES7,"[2]; RA, RAL or ROL, with or without MG",largely no effect
"NC(=O)c1ccc(-c2nc(-c3ccc4c(c3)OCO4)c(-c3ccccn3)[nH]2)cc1 [SB431542, 4-(4-(benzo[d][1,3]dioxol-5-yl)-5-(pyridine-2-yl)-1H-imidazol-2-yl)benzamide]",activity over concentrations for axioloid induction,[1]; 1.25 to 15 μM tested,active and effective over a large range of concentrations
same,requirement for proper axioloid induction,[3],necessary and sufficient
"C/C(=C\c1ccc(C(=O)O)cc1)c1ccc2c(c1)C(C)(C)CCC2(C)C [TTNPB, 4-[(E)-2-(5,6,7,8-Tetrahydro-5,5,8,8-tetramethyl-2-naphthalenyl)-1-propenyl]benzoic acid]","axioloid morphology and somite epithelialization compared with ROL, RAL, RA",[1]; 10% MG,overall similar effect on axioloid morphology and somite epithelialization
same,replacement of retinoids,[1]; 10% MG,could be used in replacement of retinoids
